Laboratory results reported in patent publication US11026925B2, “Angiotensin II receptor antagonist metabolite and NEP inhibitor composite and preparation method thereof” (SHENZHEN SALUBRIS PHARMACEUTICALS CO. LTD, priority 2016, dated 2021).
Where a name gives a salt, the structure may show the parent alone.

Experiments:
[1] = tested on: animal model with heart failure (ligation of left anterior descending coronary artery); test: anti-heart failure activity (short term, acute) in animal model (rat); assay type: in vivo; settings: for mAP / mLVP: 7 days before and 3 days after ligation, measured Day 11; for improvement effect on mAP and mLVP / effect on lowering blood pressure compared with untreated animal group: short-term administration, rat
Description: The animal model with heart failure using ligation of left anterior descending coronary artery was prepared, the therapeutic drug to the modeling animal was administrated by pre-gavage, once per day for 7 continuous days, and was continuously administrated for three days after successful modeling.
SD male rats aged 6-week old;
Pre-test preparation: All animals were divided into 5 groups by randomized blocks, 6 rats in each group, and the animals were acclimated for 3 days before test treatment; Experimental process: Therapeutic drug was given to the test animals by pre-gavage, once per day for 7 continuous days. Operation was conducted on Day 8, the animals were anesthetized, trachea was connected to a respirator, electrocardiograph (ECG) was connected for real-time recording, thoracic cavity was opened between the 3rd and 4th ribs, left anterior descending coronary artery was ligated, ST segment elevation of ECG indicated successful ligation, the thoracic cavity was closed, and the skin was sutured;
The animals were anesthetized on Day 11, ECG was measured, and then arterial pressure and left ventricular pressure were measured by carotid artery intubation.

[2] = tested on: animal model with heart failure (ligation of left anterior descending coronary artery); test: anti-heart failure activity (long term, chronic) in animal model (rat); assay type: in vivo
[3] = Hygroscopicity (plain sample) at RH 75% and RH 85%; assay type: physicochemical
[4] = Flowability (angle of repose, bulk density); assay type: physicochemical
[5] = tested on: patients with heart failure; settings: compared with the enalapril treatment group; cited from earlier work
[6] = singly used as medication; cited from earlier work
[7] = 68 mg/kg gavage once per day for 4 weeks
[8] = samples crushed to particle size distribution similar to LCZ696
[9] = 30 mg/kg gavage once per day for 4 weeks

| Structure (SMILES) | mAP ([1]; 30 mg/kg gavage once per day) | mLVP ([1]; 30 mg/kg gavage once per day) | improvement effect on mAP and mLVP / effect on lowering blood pressure compared with untreated animal group [1] | Ejection fraction [2, 9] | Heart rate [2, 9] | Myocardial fibrosis [2, 9] | Thickness of heart wall [2, 9] | other results |
| --- | --- | --- | --- | --- | --- | --- | --- | --- |
| CCCCC(=O)N(Cc1ccc(-c2ccccc2-c2nnn[n-]2)cc1)[C@H](C(=O)[O-])C(C)C.CCOC(=O)[C@H](C)C[C@@H](Cc1ccc(-c2ccccc2)cc1)NC(=O)CCC(=O)[O-].O.[Na+].[Na+].[Na+] [LCZ696] | – | – | – | – | – | – | – | mAP ([1]; 68 mg/kg gavage once per day): 78 mmHg; mLVP ([1]; 68 mg/kg gavage once per day): 44 mmHg; Ejection fraction [2, 7]: 70.6%; Heart rate [2, 7]: 412.9 beats/min; Myocardial fibrosis [2, 7]: 11.51%; state of test samples at the end of the hygroscopicity experiment ([3]; RH 75% and RH 85%, end of experiment): completely deliquescent; water content, RH 75% Day 0 ([3]; RH 75%, Day 0, plain sample): 4.9%; water content, RH 85% Day 0 ([3]; RH 85%, Day 0, plain sample): 4.9%; electrostatic phenomenon of powder ([4]; powder property test): electrostatic phenomenon; flowability (in words) ([4]; powder property test): hardly flowable; Angle of repose [4, 8]: 57.35 °; Bulk density [4, 8]: 0.527 g/mL; reduction of hospitalization rate of patients with heart failure [5]: 21% |
| CCCCc1nc(Cl)c(C(=O)O)n1Cc1ccc(-c2ccccc2-c2nnn[nH]2)cc1 [EXP3174] | 106 mmHg | 61 mmHg | not significant | 47.9% | 427.8 beats/min | 62.89% | 0.136 cm | bioavailability [6]: low bioavailability |
| CCOC(=O)[C@H](C)C[C@@H](Cc1ccc(-c2ccccc2)cc1)NC(=O)CCC(=O)O [AHU377 calcium salt, AHU377 (Sacubitril, CAS: 149709-62-6)] | 104 mmHg | 63 mmHg | not significant | 53.3% | 378.9 beats/min | 54.88% | 0.137 cm | – |
